For the test, the system named is advanced (unresectable or metastatic) pancreatic adenocarcinoma. Briefly: Phase 3 double-blind, randomized, placebo-controlled 3-stage trial: survival and time to symptom progression. Format: in vivo, human. The following applies: for Median survival time from entry into study Stage 3 to death from any cause: Intention to Treat, Stage 3 test product plus 5-FU. The protocol: This was a double-blind, multicenter, randomized, 2-arm, parallel group, 3-stage trial. Median survival was the primary end-point calculated from Kaplan-Meier plots of survival of the Intention to Treat data set.
The blood pharmacokinetic profiles of gemcitabine and VIRULIZIN® were assessed by an independent (unblinded) pharmacokinetics assessor. Stage 1 was performed at selected sites. Immune stimulation assays were also to be performed in these patients.
The decision to discontinue patients from Stage 2 and move them into Stage 3 and to continue or discontinue study treatment was at the discretion of the investigator.
However, if the investigator believed further chemotherapy was not in the best interest of the patient (based on hematological profile, symptom progression or no evidence of clinical benefit), the patient continued to receive best supportive care, with or without continued injections of VIRULIZIN® or placebo. The first 18 patients entering Stage 3 and receiving VIRULIZIN® or placebo plus intravenous infusions of 5-FU were to have blood samples taken to assess the pre- and post-dose plasma concentrations of 5-FU.
Male or female patients, aged 18 years or older, with advanced (unresectable or metastatic) pancreatic adenocarcinoma (tumor staging definition—tumor, lymph nodes, metastasis [TNM] stages II, III or IV) who had not received previous systemic chemotherapy, who had Eastern Cooperative Oncology Group (ECOG) Score 0, 1 or 2, and life expectancy greater than or equal to 12 weeks were included in the study.
VIRULIZIN® or placebo was administered as intramuscular injections of 3 mL with dosing 3 times weekly (Monday, Wednesday, Friday) in Stages 1, 2 and 3.
Following pain stabilization screening, all randomized patients in Stages 1 and 2 received 30-minute intravenous infusions of gemcitabine at a dose of 1 g/m2 weekly for the first 7 weeks, followed by a week of rest. Subsequent cycles consisted of 28-day cycles with gemcitabine dosing on days 1, 8 and 15. Guidelines for dose reduction in case of toxicity were provided from the Official Product Prescribing Guidelines. Dosing continued until intolerance to gemcitabine developed, or there was symptom progression, or no evidence of clinical benefit. […] The patient's physician made the decision concerning 5-FU chemotherapy or best supportive care.
Efficacy was evaluated based upon survival time, defined as the time from Baseline/Treatment Day 1 to the time of death from any cause. Time to progression of symptoms, consisting of: time to increase in pain (with consideration of analgesic consumption), time to deterioration in ECOG score, and time to weight loss.

Setting [1] is: ECOG 0 or 1, treated in Stage 3, of 25 (VIRULIZIN plus 5-FU) / of 16 (placebo plus 5-FU) patients.

Consider `O=c1[nH]cc(F)c(=O)[nH]1` [Placebo plus 5-FU, 5-fluorouracil], for which, under setting [1], the “number of patients alive (censored) at the end of the study data collection period” value was “None”. Also, the “percent of patients alive (censored) at the end of the study data collection period” value under setting [1] turned out to be 0%. Besides, the “Median survival time from entry into study Stage 3 to death from any cause” value was found to be 2.94 months (ECOG 0 or 1); 3.42 months (ECOG 2); 3.43 months (ECOG 2, listed as placebo plus 5-FU); 3.22 months (Overall).
